Patent US20120172650A1, “USE OF SO[…] AN ANALOGUE THEREOF IN COMBINATION WITH EXTERNAL RADIATION THERAPY” (priority 2009, published 2012)
Read-outs that look alike come from different tables or passages of the source.

What was measured:
[1] = test system: GH3 cells; assay: Apoptosis and cell cycle analysis by FACScan flow cytometry (propidium iodide); format: cell-based, rat; details: for apoptotic sub-G1 cells: 48 hours after 10 Gy radiation
Method: Apoptosis and cell cycle distribution was analyzed using a FACScan flow cytometer (BD Biosciences, San Jose, Calif.). The level of apoptosis was quantified by measuring the number of sub-diploid (sub-G1) cells. Briefly, GH3 cells were plated in 60 mm dishes at a density of approximately 500,000 cells/dish and treated with lanreotide and gamma irradiation. Approximately 48 to 168 hours after exposure, the cells were collected and washed with cold PBS supplemented with 5 mM EDTA. Cells were re-suspended in cold PBS-EDTA solution and fixed with cold 100% ethanol. After incubation for 30 minutes at room temperature, the cells were centrifuged and the pellet of cells was treated with 100 μg/ml of RNase A in a PBS-EDTA solution for 30 minutes at room temperature. Propidium iodide (PI) was added to a final concentration of 50 μg/ml and the DNA content was analyzed with a FACScan flow cytometer (BD Biosciences, San Jose, Calif.). The percentage of cells in the apoptotic sub-G1, G1, S, and G2/M phases was calculated.
GH3 cells were placed in 60 mm Petri dishes at a concentration of approximately 500,000 cells/dish and allowed to grow overnight. Lanreotide at 100 nM was added at 48 hours, 24 hours or immediately (0 hours) before irradiation. Cells were irradiated with 10 Gy gamma radiation at room temperature and collected 48, 72, 96 and 168 hours after exposure.
The DNA content of the cells was analyzed using a FACScan and the percentages of cells in the apoptotic sub-G1, G1, S and G2/M phases were calculated. […] The percentage of cells in sub-G1, G1, S and G2/M phases at 48 hours was 1.4±0.2%, 73.2±1.0%, 8.4±1.0% and 16.9±1.8%, respectively.

[2] = test system: GH3 cells; format: cell-based, rat; details: for surviving fraction at 10 Gy: 100 nM lanreotide, plus 10 Gy radiation (radiation alone 0.0006); for cell survival rate (colony forming units): 21 days
Source text: Currently, there are no human pituitary GH-secreting cell lines that can be maintained in a differentiated state in vitro for sufficient time for colony formation assessment (Danila, D. C. et al., J. Clin. Endocrinol. Metab., 2001, 86:2976-8; Danila, D. C. et al., J. Clin. Endocrinol. Metab., 2000, 85:1180-7). As such, a rat GH3 pituitary tumor cell line was purchased from ATCC. The GH3 cells were maintained in DMED/F-12 medium (Gibco BRL, Grand Island, N.Y.) supplemented with 10% fetal calf serum, 100 units/ml penicillin and 100 μg/ml streptomycin in a 37° C. humidified incubator with a mixture of 95% air and 5% CO2. All experiments were performed on exponentially growing cells with a doubling time of approximately 30 hours.
GH3 cells were detached from the cell culture support using a 0.05% trypsin-EDTA solution. The collected cells were counted, diluted in fresh growth medium and plated in triplicate in 60 mm Petri dishes (BD Biosciences, San Jose, Calif.) at dilutions of approximately 100-100,000 cells/dish. Lanreotide (Biomeasure, Inc., Milford, Mass., USA) was added to the diluted cells at final concentrations of 1-1000 nM. The cells were irradiated with 0-10 Gy at room temperature using a ^137Cs source with a dose rate of 300 cGy/min. Following exposure to lanreotide or gamma irradiation, the media was drained from the dish, the cells were washed twice with PBS (phosphate buffered saline) solution and the plates were filled with fresh growth medium. After incubation at 37° C. for 21 days, the cells were stained with 0.25% crystal violet. Colonies containing ≧50 cells were counted under a dissecting microscope and survival curves were generated. The plating efficiency (PE) was calculated as the percentage of cells plated that grew into colonies. The surviving fraction (SF) was defined as the fraction of cells surviving, i.e. number of colonies/(number of […]×PE).
GH3 cells were plated in 60 mm tissue culture dishes and incubated overnight prior to treatment with the somatostatin agonist analog. Lanreotide was added to the cells to a final concentration of 1-1000 nM. After a 21 day incubation period in the presence of lanreotide the cells were stained and colonies with >50 cells were counted.
GH3 cells were plated in tissue culture dishes and allowed to incubate overnight prior to treatment. At 48, 24 or 0 hours before radiation exposure, lanreotide was added to the cells at a final concentration of 100 nM or 1000 nM. At 48, 24 or 0 hours after the addition of the lanreotide, the GH3 cells were irradiated with 0-10 Gy at room temperature with a Cs-137 gamma irradiator. Following irradiation, cells with 24-hour or 0-hour pre-exposure to lanreotide were incubated in lanreotide-containing media for an additional 24 or 48 hours, respectively. After a total of 48-hour exposure, lanreotide-containing media was removed from the plates, the cells washed twice with PBS solution and fresh growth media added to the cells. Cells that were irradiated without exposure to lanreotide were also washed twice with PBS and supplied with fresh media. The cells were incubated for 21 days for colony formation.

[3] = test system: GH3 xenograft tumors; assay: Mouse GH3 xenograft tumor model, tumor growth delay; format: in vivo, nude mice
Method: Male nude mice, 8 weeks old and 20-25 grams in body weight, were used in this study (Charles River Laboratories, Hollister, Calif.). Prior to experimentation the mice were tested and found to be negative for specific pathogens. The mice were maintained under specific-pathogen-free conditions and allowed to breed. Sterilized food and water were available ad libitum.
Tumors were initiated in the in the right flank of the mice by a subcutaneous injection of 5×10^6 tumor cells suspended in 100 μl of a 1:1 mixture of Hank's solution and Matrigel (BD Biosciences, San Jose, Calif.). Each mouse received one inoculation injection. When the tumors reached an average size of 120 mm^3 (80-200 mm^3), the mice were randomly assigned to different treatment groups with 5-8 mice in each group. Lanreotide was administered to each mouse via subcutaneous injection. […]
Local irradiation of individual tumors was carried out as follows. Unanesthetized tumor-bearing mice were placed in lead boxes, positioned so as to have the tumors protruding through a cut-out window at the rear of each box. The radiation dose was delivered using a Philips RT-250 200 kVp X-ray unit (12.5 mA; Half Value Layer, 1.0-mm Cu) at a dose rate of 138 cGy/min. The tumors were exposed to 150-250 cGy per fraction daily for 5 consecutive days as specified in each experiment.
(§1) Tumor volume was calculated using the formula: tumor volume (mm^3)=π/6×length×width^2. The length and width of the tumors were measured with calipers before treatment and three times a week thereafter, until the tumor volume reached at least 4 times (4×) the pre-treatment volume. The tumor volume quadrupling (4×) time was determined by a best-fit regression analysis. The tumor growth delay (TGD) time (in days) is the difference between the tumor volume quadrupling time of treated tumors compared to the tumor volume quadrupling time of untreated control tumors. Both the tumor volume quadrupling time and tumor growth delay time were calculated for each individual animal and then averaged for each group. In some experiments, a complete response of tumors was recorded if a tumor shrunk to the point that it was not palpable at the end of the experiment. Body weight was measured twice a week.

[4] = Tolerability in GH3 tumor-bearing mice (body weight, appearance, activity); format: in vivo, nude mice
Method: as §1

CC(C)[C@@H]1NC(=O)[C@H](CCCCN)NC(=O)[C@@H](Cc2c[nH]c3ccccc23)NC(=O)[C@H](Cc2ccc(O)cc2)NC(=O)[C@@H](NC(=O)[C@H](N)Cc2ccc3ccccc3c2)CSSC[C@@H](C(=O)N[C@H](C(N)=O)[C@@H](C)O)NC1=O [lanreotide, D-2-Nal-Cys-Tyr-D-Trp-Lys-Val-Cys-Thr-NH2]
percentage of cells in sub-G1 phase ([1]; 100 nM lanreotide alone (control 1.4±0.2% at 48 hours)): 2.28±0.3%
percentage of cells in S phase ([1]; 100 nM lanreotide alone (control 8.4±1.0%)): 7.72±0.8%
percentage of cells in G2/M phase ([1]; 100 nM lanreotide alone (control 16.9±1.8%)): 16.2±0.5%
percentage of cells in G1 phase ([1]; 100 nM lanreotide alone (control 73.2±1.0%)): 73.8±1.1%
apoptotic sub-G1 cells ([1]; 100 nM lanreotide 0 hours pre-exposure (radiation alone 4.9%)): 13.4%
apoptotic sub-G1 cells ([1]; 100 nM lanreotide 24 hours pre-exposure (radiation alone 4.9%)): 9.3%
apoptotic sub-G1 cells ([1]; 100 nM lanreotide 48 hours pre-exposure (radiation alone 4.9%)): 8.6%
sub-G1 cell fraction ([1]; 168 hours after 10 Gy radiation, radiation plus 100 nM lanreotide (radiation alone 12%)): 20-22%
surviving fraction at 10 Gy ([2]; 0 hour pre-exposure): 0.00042
surviving fraction at 10 Gy ([2]; 24 hours pre-exposure): 0.0004
surviving fraction at 10 Gy ([2]; 48 hours pre-exposure): 0.00022
effect on radiation survival curves ([2]; 1000 nM lanreotide for 48 hours with 0-10 Gy radiation): did not alter the shape and slopes of the radiation survival curves
IC50 ([2]; GH3 cells, 21 day incubation in the presence of lanreotide, read-out: IC50 (50% inhibition of cell growth), colony formation): 57 nM
cell survival rate (colony forming units) ([2]; lanreotide 1 nM): 75%
cell survival rate (colony forming units) ([2]; lanreotide 10 nM): 56%
cell survival rate (colony forming units) ([2]; lanreotide 100 nM): 39%
cell survival rate (colony forming units) ([2]; lanreotide 1000 nM): 27%
reduction of clonogenic survival compared with untreated controls ([2]; lanreotide alone 100 nM or 1000 nM for 48 hours, without radiation): 5-10%
tumor growth delay time, pre-administration plus radiation ([3]; 10 mg/kg lanreotide 5 days, then lanreotide plus 150 cGy daily for 5 days (radiation alone 15.5±8.8 days)): 15.1 ± 8.6 days
once daily vs twice daily dosing in reducing tumor growth ([3]; 2.5, 5 or 10 mg/kg s.c. qd or bid for 5 days, p=0.3-0.9): lanreotide delivered once a day was as effective as lanreotide delivered twice daily
tumor growth 4× delay ([3]; dose response study, 10 mg/kg s.c. daily for 5 days (optimal dose, bell-shaped curve)): 13.1 ± 4.7 days
complete tumor regression ([3]; irradiation and combination therapy groups, study terminated after 60 days): Two mice from the irradiation and combination therapy groups exhibited complete tumor regression
4×TGD ([3]; lanreotide alone 10 mg/kg daily for 10 days, p=0.06 vs. control): 8.3 ± 8.3 days
tumor growth 4× delay ([3]; regimen comparison, 5 mg/kg twice daily for 5 days): 1.1 ± 3.1 days
tumor growth 4× delay ([3]; regimen comparison, 10 mg/kg once daily for 5 days): 4.9 ± 2.1 days
signs of systemic toxicity (general appearance, skin reaction, body weight, activity) ([4]; 10 mg/kg for 10 days alone and in combination with 150 cGy external radiation): did not result in any obvious signs of systemic toxicity
animal body weight, combination vs fractionated radiation alone ([4]; 10 mg/kg lanreotide plus 150-250 cGy/fraction for 5 days): did not cause any further decrease in animal body weight
general appearance and daily activity ([4]; 2.5-50 mg/kg daily for 5 days): no notable change
body weight compared to untreated control mice ([4]; 2.5-50 mg/kg daily for 5 days, all doses tested): did not cause significant decrease in body weight
